Test results reported in US20230286968A1, “ARYLOXAZOLO SPIRAL RING DERIVATIVES FOR THE TREATMENT AND PROPHYLAXIS OF HEPATITIS B VIRUS INFECTION” (Hoffmann-La Roche Inc., priority 2020, published 2023).

Legend:
HBsAg = experiment: PHH natural infection assay, HBsAg (alphalisa); assay type: cell-based, HBV; conditions: Hepatitis B virus, Hepatocyte, read-out: HBsAg IC50, HBV-infected primary human hepatocytes, supernatant, alphalisa
Procedure: (§1) Detailed procedures regarding primary human hepatocyte (PHH) HBV natural infection assay are described as below. One tube of frozen PHH (10 million cells) is thawed in 37° C. water bath and then transferred to 20 mL of PHH thawing medium (Sigma, InVitroGRO HT Medium, Cat. S03319) with gently mixing. The cells were then centrifuged at […] for 5 min, the supernatant was discarded and the tube was refilled with 25 mL of PHH plating medium (Sigma, InVitroGRO CP Medium, Cat. S03317). The tube was shaken very gently to re-suspend all cells, and then 50 μL of cells were transferred to each well 384-well collagen I coated plate with appropriate liquid handling equipment, e.g. Integra VIAFLO384 or Agilent Bravo. The cells were then cultured for 24 hours in a cell incubator. For HBV infection, after PHH attachment on the culture plate, the plating medium was removed and replenished with PHH culture medium containing HBV virus. The PHH culture medium was prepared with Dulbecco's Modified Eagle Medium (DMEM)/F12 (1:1 in volume ratio) containing 10% fetal bovine serum (Gibco, Cat. 10099141), 5 ng/mL human epidermal growth factor (Gibco, Cat.PHG0311L), 20 ng/mL dexamethasone (Sigma, Cat.D4902-100 mg), 250 ng/mL human recombinant insulin (Gibco, Cat.41400045) and 100 U/mL penicillin. HBV virus at 200 genome equivalent (GE) per cell with 4% PEG8000 (Sigma, Cat.P1458) containing culture medium were added to the PHH culture medium for infection. The cells were then cultured for 24 hours in cell incubator. Then the cell culture supernatant was removed. The HBV-infected PHH were cultured with sandwich culture method with PHH culture medium containing […] and 0.25 mg/mL matrix gel for 72 hours. The supernatant was then refreshed with PHH culture medium containing different concentrations of testing compounds for two times with 72-hour interval. At the end of treatment, the supernatant was collected for viral markers measurements, including HBsAg, HBeAg, HBV DNA and cytotoxicity. HBsAg and HBeAg were detected using alphalisa method using their specific antibodies. For HBV DNA detection, HBV DNA Quantitative Fluorescence Diagnostic Kit (Sansure Biotech Inc.) was used following the manufacture's protocol. Cytotoxicity was determined using Cell Counting Kit-8 (CCK8, Dojindo Molecular Technologies, Inc.).
(§2) The compounds of the present invention were tested for their capacity to inhibit HBsAg and HBeAg as described herein.

HBeAg = experiment: PHH natural infection assay, HBeAg (alphalisa); assay type: cell-based, HBV; conditions: Hepatitis B virus, Hepatocyte, read-out: HBeAg IC50, HBV-infected primary human hepatocytes, supernatant, alphalisa
Procedure: as §1, §2

[1] = Cytotoxicity in PHH natural infection assay (Cell Counting Kit-8); assay type: cell-based; conditions: HBV-infected primary human hepatocytes, CCK8
Procedure: as §1

Row | SMILES | IC50 (HBsAg) | IC50 (HBeAg) | CC50 at 144 h [1]
1 | N#Cc1cc(C(=O)NC2CC3(C2)CC(c2nc4cc(Cl)ccc4o2)C3)ccn1 (stereo not drawn) [Example 18, N-[6-(5-chloro-1,3-benzoxazol-2-yl)spiro[3.3]heptan-2-yl]-2-cyano-pyridine-4-carboxamide] | 4.86 µM | 4.87 µM | > 10 µM
2 | O=C(NC1CC2(C1)CC(c1nc3cc(Cl)ccc3o1)C2)c1ccnc(S(=O)(=O)CC2CC2)c1 (stereo not drawn) [Example 100, N-[6-(5-chloro-1,3-benzoxazol-2-yl)spiro[3.3]heptan-2-yl]-2-(cyclopropylmethylsulfonyl)pyridine-4-carboxamide] | 0.59 µM | 0.44 µM | > 10 µM
3 | CN1CC(C(=O)NC2CC3(C2)CC(c2nc4cc(Cl)ccc4o2)C3)CC1=O (stereo not drawn) [Example 30, N-[6-(5-chloro-1,3-benzoxazol-2-yl)spiro[3.3]heptan-2-yl]-1-methyl-5-oxo-pyrrolidine-3-carboxamide] | 3.89 µM | 2.65 µM | > 100 µM
4 | CCCS(=O)(=O)N1CCC(C(=O)NC2CC3(C2)CC(c2nc4cc(Cl)ccc4o2)C3)C1 (stereo not drawn) [Example 71, N-[6-(5-chloro-1,3-benzoxazol-2-yl)spiro[3.3]heptan-2-yl]-1-propylsulfonyl-pyrrolidine-3-carboxamide] | 9.73 µM | 9.43 µM | > 10 µM
5 | O=C(NC1CC2(C1)CC(c1nc3cc(Cl)ccc3o1)C2)c1ccnc(N2CCCC2=O)c1 (stereo not drawn) [Example 13, N-[6-(5-chloro-1,3-benzoxazol-2-yl)spiro[3.3]heptan-2-yl]-2-(2-oxopyrrolidin-1-yl)pyridine-4-carboxamide] | 3.75 µM | 3.94 µM | > 10 µM
6 | O=C(NC1CC2(C1)CC(c1nc3cc(Cl)cnc3o1)C2)c1ccnc(S(=O)(=O)C2CC2)c1 (stereo not drawn) [Example 85, N-[6-(6-chlorooxazolo[5,4-b]pyridin-2-yl)spiro[3.3]heptan-2-yl]-2-cyclopropylsulfonyl-pyridine-4-carboxamide] | 0.81 µM | 0.73 µM | > 10 µM
7 | O=C(NC1CC2(C1)CC(c1nc3cc(Cl)ccc3o1)C2)c1ccnc(S(=O)(=O)C2CNC2)c1 (stereo not drawn) [Example 98, 2-(Azetidin-3-ylsulfonyl)-N-[6-(5-chloro-1,3-benzoxazol-2-yl)spiro[3.3]heptan-2-yl]pyridine-4-carboxamide] | 3.59 µM | 3.08 µM | > 10 µM
8 | COc1cc(C(=O)NC2CC3(C2)CC(c2nc4cc(Cl)ccc4o2)C3)ccn1 (stereo not drawn) [Example 17, N-[6-(5-chloro-1,3-benzoxazol-2-yl)spiro[3.3]heptan-2-yl]-2-methoxy-pyridine-4-carboxamide] | 5.45 µM | 4.48 µM | > 10 µM
9 | CN1CC(CC(=O)NC2CC3(C2)CC(c2nc4cc(Cl)ccc4o2)C3)CC1=O (stereo not drawn) [Example 35, N-[6-(5-chloro-1,3-benzoxazol-2-yl)spiro[3.3]heptan-2-yl]-2-(1-methyl-5-oxo-pyrrolidin-3-yl)acetamide] | 9.93 µM | 7.28 µM | > 10 µM
10 | CCN(C)C(=O)NC1CC2(C1)CC(c1nc3cc(Cl)ccc3o1)C2 (stereo not drawn) [Example 62, 3-[6-(5-chloro-1,3-benzoxazol-2-yl)spiro[3.3]heptan-2-yl]-1-ethyl-1-methyl-urea] | 3.23 µM | 2.12 µM | > 100 µM
11 | NC(=O)c1cc(C(=O)NC2CC3(C2)CC(c2nc4cc(Cl)ccc4o2)C3)ccn1 (stereo not drawn) [Example 101, N4-[6-(5-chloro-1,3-benzoxazol-2-yl)spiro[3.3]heptan-2-yl]pyridine-2,4-dicarboxamide] | 0.32 µM | 0.22 µM | > 100 µM
12 | CCS(=O)(=O)N1CCC(C(=O)NC2CC3(C2)CC(c2nc4cc(Cl)ccc4o2)C3)C1 (stereo not drawn) [Example 70, N-[6-(5-chloro-1,3-benzoxazol-2-yl)spiro[3.3]heptan-2-yl]-1-ethylsulfonyl-pyrrolidine-3-carboxamide] | 5.42 µM | 3.62 µM | > 10 µM
13 | O=C(NC1CC2(C1)CC(c1nc3ncccc3o1)C2)C1CCS(=O)(=O)C1 (stereo not drawn) [Example 41, N-(6-oxazolo[4,5-b]pyridin-2-ylspiro[3.3]heptan-2-yl)-1,1-dioxo-thiolane-3-carboxamide] | 5.28 µM | 2.32 µM | > 100 µM
14 | O=C(CCCS(=O)(=O)NC(=O)C1CCC1)NC1CC2(C1)CC(c1nc3cc(Cl)ccc3o1)C2 (stereo not drawn) [Example 81, N-[4-[[6-(5-chloro-1,3-benzoxazol-2-yl)spiro[3.3]heptan-2-yl]amino]-4-oxo-butyl]sulfonylcyclobutanecarboxamide] | 4.6 µM | 6.06 µM | > 10 µM
15 | O=C(NCC1CCOC1)NC1CC2(C1)CC(c1nc3cc(Cl)ccc3o1)C2 (stereo not drawn) [Example 63, 1-[6-(5-chloro-1,3-benzoxazol-2-yl)spiro[3.3]heptan-2-yl]-3-(tetrahydrofuran-3-ylmethyl)urea] | 8.02 µM | 5.3 µM | > 100 µM
16 | CC1(C(=O)NC2CC3(C2)CC(c2nc4cc(Cl)ccc4o2)C3)CCS(=O)(=O)CC1 (stereo not drawn) [Example 54, N-(6-(5-chlorobenzo[d]oxazol-2-yl)spiro[3.3]heptan-2-yl)-4-methyltetrahydro-2H-thiopyran-4-carboxamide 1,1-dioxide] | 1.94 µM | 1.86 µM | > 100 µM
17 | CS(=O)(=O)N1CCC(C(=O)NC2CC3(C2)CC(c2nc4cc(Cl)ccc4o2)C3)C1 (stereo not drawn) [Example 69, N-[6-(5-chloro-1,3-benzoxazol-2-yl)spiro[3.3]heptan-2-yl]-1-methylsulfonyl-pyrrolidine-3-carboxamide] | 1.79 µM | 1.31 µM | > 100 µM
18 | O=C(NC1CC2(C1)CC(c1nc3cc(Cl)ccc3o1)C2)N1CCS(=O)(=O)CC1 (stereo not drawn) [Example 68, N-[6-(5-chloro-1,3-benzoxazol-2-yl)spiro[3.3]heptan-2-yl]-1,1-dioxo-1,4-thiazinane-4-carboxamide] | 6.65 µM | 4.12 µM | > 100 µM
19 | CN1C(C(=O)NC2CC3(C2)CC(c2nc4cc(Cl)ccc4o2)C3)CCS1(=O)=O (stereo not drawn) [Example 46, N-[6-(5-chloro-1,3-benzoxazol-2-yl)spiro[3.3]heptan-2-yl]-2-methyl-1,1-dioxo-1,2-thiazolidine-3-carboxamide] | 3.9 µM | 3.41 µM | > 10 µM
20 | O=C(NC1CC2(C1)CC(c1nc3cc(Cl)ccc3o1)C2)c1ccnc(NC2COC2)c1 (stereo not drawn) [Example 5, N-[6-(5-chloro-1,3-benzoxazol-2-yl)spiro[3.3]heptan-2-yl]-2-(oxetan-3-ylamino)pyridine-4-carboxamide] | 7.19 µM | 5.42 µM | > 10 µM
21 | O=C(NC1CC2(C1)CC(c1nc3cc(Cl)ccc3o1)C2)c1ccnc(-c2nccs2)c1 (stereo not drawn) [Example 16, N-[6-(5-chloro-1,3-benzoxazol-2-yl)spiro[3.3]heptan-2-yl]-2-thiazol-2-yl-pyridine-4-carboxamide] | 5.78 µM | 4.73 µM | > 10 µM
22 | CN1C(=O)CCC1CC(=O)NC1CC2(C1)CC(c1nc3cc(Cl)ccc3o1)C2 (stereo not drawn) [Example 36, N-[6-(5-chloro-1,3-benzoxazol-2-yl)spiro[3.3]heptan-2-yl]-2-(1-methyl-5-oxo-pyrrolidin-2-yl)acetamide] | 4.05 µM | 3.72 µM | > 10 µM
